Reference: patent US20210300924A1, “5-[6-[[3-(4,5,6,7-TETRAHYDROPYRAZOLO[4,3-C]PYRIDIN-1-YL)AZETIDIN-1-YL]METHYL]MORPHOLIN-4-YL]QUINOLINE-8-CARBONITRILE DERIVATIVES AND SIMILAR COMPOUNDS AS TLR7-9 ANTAGONISTS FOR TREATING SYSTEMIC LUPUS ERYTHEMATOSUS” (Hoffmann-La Roche Inc., priority 2018, published 2021)

Target: T1, human TLR8 (Homo sapiens, UniProt Q9NR97)
T1 construct: host or cells: HEK293 (HEK-Blue hTLR8)
T1 sequence (Q9NR97 27-1041): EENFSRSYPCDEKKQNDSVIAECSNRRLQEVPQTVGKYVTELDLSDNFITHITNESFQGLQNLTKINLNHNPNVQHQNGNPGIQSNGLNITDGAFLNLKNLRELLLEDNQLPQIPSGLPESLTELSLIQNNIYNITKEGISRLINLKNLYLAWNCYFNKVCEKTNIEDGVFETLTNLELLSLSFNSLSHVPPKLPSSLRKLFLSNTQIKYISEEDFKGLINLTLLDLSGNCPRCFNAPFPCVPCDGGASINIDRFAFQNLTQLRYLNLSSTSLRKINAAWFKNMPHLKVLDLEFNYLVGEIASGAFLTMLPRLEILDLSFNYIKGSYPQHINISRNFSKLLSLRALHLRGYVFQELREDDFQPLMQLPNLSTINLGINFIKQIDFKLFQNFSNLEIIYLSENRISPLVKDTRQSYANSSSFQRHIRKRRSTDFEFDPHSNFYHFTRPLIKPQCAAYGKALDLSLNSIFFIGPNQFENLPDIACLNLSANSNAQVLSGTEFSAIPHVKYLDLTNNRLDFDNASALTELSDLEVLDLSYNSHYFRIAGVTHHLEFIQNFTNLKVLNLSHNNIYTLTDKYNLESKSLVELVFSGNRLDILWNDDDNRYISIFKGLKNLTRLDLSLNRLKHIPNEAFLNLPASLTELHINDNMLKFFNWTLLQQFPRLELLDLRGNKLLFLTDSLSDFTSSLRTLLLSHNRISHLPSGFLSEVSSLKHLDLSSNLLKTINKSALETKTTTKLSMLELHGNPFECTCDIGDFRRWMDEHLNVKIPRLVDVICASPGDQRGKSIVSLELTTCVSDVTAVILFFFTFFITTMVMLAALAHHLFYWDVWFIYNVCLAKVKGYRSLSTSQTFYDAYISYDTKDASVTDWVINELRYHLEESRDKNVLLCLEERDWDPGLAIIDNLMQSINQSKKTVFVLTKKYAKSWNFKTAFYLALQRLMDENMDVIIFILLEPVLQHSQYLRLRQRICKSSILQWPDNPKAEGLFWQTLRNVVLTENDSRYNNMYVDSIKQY
Assay: HEK293-Blue-hTLR-8 cells assay
Assay type: cell-based
Settings: HEK293-Blue-hTLR8 cells, R848 stimulation, 20 hrs, SEAP reporter; read-out: HEK/hTLR8 IC50
From the text: A stable HEK293-Blue-hTLR-8 cell line was purchased from InvivoGen (Cat. #: hkb-htlr8, San Diego, Calif., USA). These cells were originally designed for studying the stimulation of human TLR8 by monitoring the activation of NF-κB. A SEAP (secreted embryonic alkaline phosphatase) reporter gene was placed under the control of the IFN-β minimal promoter fused to five NF-κB and AP-1-binding sites. The SEAP was induced by activating NF-κB and AP-1 via stimulating HEK-Blue hTLR8 cells with TLR8 ligands. Therefore the reporter expression was declined by TLR8 antagonist under the stimulation of a ligand, such as R848, for incubation of 20 hrs. The cell culture supernatant SEAP reporter activity was determined using QUANTI-Blue™ kit (Cat. #: rep-qb1, Invivogen, San Diego, Ca, USA) at a wavelength of 640 nm, a detection medium that turns purple or blue in the presence of alkaline phosphatase.
HEK293-Blue-hTLR8 cells were incubated at a density of 250,000-450,000 cells/mL in a volume of 170 μL in a 96-well plate in Dulbecco's Modified Eagle's medium (DMEM) containing 4.5 g/L glucose, 50 U/mL penicillin, […], […], 2 mM L-glutamine, 10% (v/v) heat-inactivated fetal bovine serum with addition of 20 μL test compound in a serial dilution in the presence of final DMSO at 1% and 10 μL of 60 uM R848 in above DMEM, perform incubation under 37° C. in a CO2 incubator for 20 hrs. Then 20 μL of the supernatant from each well was incubated with […] Quanti-blue substrate solution at 37° C. for 2 hrs and the absorbance was read at 620-655 nm using a spectrophotometer. The signaling pathway that TLR8 activation leads to downstream NF-κB activation has been widely accepted, and therefore similar reporter assay was modified for evaluating TLR8 antagonist.

| Structure (SMILES) | IC50 [nM] |
| --- | --- |
| C[C@@H]1CN(c2ccc(C#N)c3ncccc23)C[C@H](CN2CC(n3ncc4c3C[C@H](C)NC4)C2)O1 [Example 18, 5-[(2R,6S)-2-methyl-6-[[3-[(6S)-6-methyl-4,5,6,7-tetrahydropyrazolo[4,3-c]pyridin-1-yl]azetidin-1-yl]methyl]morpholin-4-yl]quinoline-8-carbonitrile] | 19 |
| CC(C)N1CCc2cn(C3CN(C[C@H]4CN(c5ccc(C#N)c6ncccc56)C[C@@H](C)O4)C3)nc2C1 [Example 9, 5-[(2S,6R)-2-[[3-(6-isopropyl-5,7-dihydro-4H-pyrazolo[3,4-c]pyridin-2-yl)azetidin-1-yl]methyl]-6-methyl-morpholin-4-yl]quinoline-8-carbonitrile] | 7 |
| Cc1c2c(nn1C1CN(C[C@H]3CN(c4ccc(C#N)c5ncccc45)C[C@@H](C)O3)C1)CCN(C)C2 [Example 15, 5-[(2S,6R)-2-[[3-(3,5-dimethyl-6,7-dihydro-4H-pyrazolo[4,3-c]pyridin-2-yl)azetidin-1-yl]methyl]-6-methyl-morpholin-4-yl]quinoline-8-carbonitrile] | 9 |
| C[C@@H]1CN(c2ccc(C#N)c3ncccc23)C[C@H](CN2CC(n3cc4c(n3)C(C)(C)CNC4)C2)O1 [Example 24, 5-[(2S,6R)-2-[[3-(7,7-dimethyl-5,6-dihydro-4H-pyrazolo[4,3-c]pyridin-2-yl)azetidin-1-yl]methyl]-6-methyl-morpholin-4-yl]quinoline-8-carbonitrile] | 14 |
| Cc1nn(C2CN(C[C@H]3CN(c4ccc(C#N)c5ncccc45)C[C@@H](C)O3)C2)c2c1CCNC2 [Example 42, 5-[(2R,6S)-2-methyl-6-[[3-(3-methyl-4,5,6,7-tetrahydropyrazolo[3,4-c]pyridin-1-yl)azetidin-1-yl]methyl]morpholin-4-yl]quinoline-8-carbonitrile] | 18 |
| CCN1CCc2cn(C3CN(C[C@H]4CN(c5ccc(C#N)c6ncccc56)C[C@@H](C)O4)C3)nc2C1 [Example 7, 5-[(2S,6R)-2-[[3-(6-ethyl-5,7-dihydro-4H-pyrazolo[3,4-c]pyridin-2-yl)azetidin-1-yl]methyl]-6-methyl-morpholin-4-yl]quinoline-8-carbonitrile] | 5 |
| C[C@@H]1CN(c2ccc(C#N)c3ncccc23)C[C@H](CN2CC(n3cc4c(n3)CNC4)C2)O1 [Example 11, 5-[(2S,6R)-2-[[3-(5,6-dihydro-4H-pyrrolo[3,4-c]pyrazol-2-yl)azetidin-1-yl]methyl]-6-methyl-morpholin-4-yl]quinoline-8-carbonitrile] | 19 |
| C[C@@H]1Cc2cnn(C3CN(C[C@H]4CN(c5ccc(C#N)c6ncccc56)C[C@@H](C)O4)C3)c2CN1 (single isomer, unassigned) [Example 28] | 10 |
| C[C@@H]1CN(c2ccc(C#N)c3ncccc23)C[C@H](CN2CC(n3ncc4c3CNC4)C2)O1 [Example 10, 5-[(2S,6R)-2-[[3-(5,6-dihydro-4H-pyrrolo[3,4-c]pyrazol-1-yl)azetidin-1-yl]methyl]-6-methyl-morpholin-4-yl]quinoline-8-carbonitrile] | 19 |
| CCN1CCc2cnn(C3CN(C[C@H]4CN(c5ccc(C#N)c6ncccc56)C[C@@H](C)O4)C3)c2C1 [Example 6, 5-[(2S,6R)-2-[[3-(6-ethyl-5,7-dihydro-4H-pyrazolo[3,4-c]pyridin-1-yl)azetidin-1-yl]methyl]-6-methyl-morpholin-4-yl]quinoline-8-carbonitrile] | 5 |

Now from value to compound:

| IC50 [nM] | Structure (SMILES) |
| --- | --- |
| 6 | C[C@@H]1CN(c2ccc(C#N)c3ncccc23)C[C@H](CN2CC(n3cc4c(n3)CN(C)CC4)C2)O1 [Example 5, 5-[(2R,6S)-2-methyl-6-[[3-(6-methyl-5,7-dihydro-4H-pyrazolo[3,4-c]pyridin-2-yl)azetidin-1-yl]methyl]morpholin-4-yl]quinoline-8-carbonitrile] |
| 40 | C[C@@H]1CN(c2ccc(C#N)c3ncccc23)C[C@H](CN2CCC(n3cc4c(n3)CCNC4)CC2)O1 [Example 36, 5-[(2R,6S)-2-methyl-6-[[4-(4,5,6,7-tetrahydropyrazolo[4,3-c]pyridin-2-yl)-1-piperidyl]methyl]morpholin-4-yl]quinoline-8-carbonitrile] |
| 9 | C[C@@H]1CN(c2ccc(C#N)c3ncccc23)C[C@H](CN2CC(n3cc4c(n3)CNCC4)C2)O1 [Example 4, 5-[(2R,6S)-2-methyl-6-[[3-(4,5,6,7-tetrahydropyrazolo[3,4-c]pyridin-2-yl)azetidin-1-yl]methyl]morpholin-4-yl]quinoline-8-carbonitrile] |
| 25 | C[C@@H]1CN(c2ccc(C#N)c3ncccc23)C[C@H](CN2CCC(n3ncc4c3CCNC4)CC2)O1 [Example 35, 5-[(2R,6S)-2-methyl-6-[[4-(4,5,6,7-tetrahydropyrazolo[4,3-c]pyridin-1-yl)-1-piperidyl]methyl]morpholin-4-yl]quinoline-8-carbonitrile] |
